In patent publication US20250289789A1, “REVERSIBLE LYSINE COVALENT MODIFIERS OF CDK2 AND USES THEREOF” (Terremoto Biosciences, Inc., priority 2023, published 2025):
pIC50: −log10 of the molar value. Read-outs that look alike come from different tables or passages of the source.

Experiments:
Type in all cases: cell-based
[1] = target: T1, CDK1-NanoLuc fusion with CCNB1 in 293T or 293 cells (Homo sapiens, UniProt P06493); assay: NanoBRET Target Engagement (TE) Intracellular Kinase Assay, CDK1/CCNB1; conditions: 2-hour incubation
T1 construct: host or cells: 293T (ATCC CRL-3216) or 293 (ATCC CRL-1573)
T1 sequence (P06493 whole entry, the tested form may be a part): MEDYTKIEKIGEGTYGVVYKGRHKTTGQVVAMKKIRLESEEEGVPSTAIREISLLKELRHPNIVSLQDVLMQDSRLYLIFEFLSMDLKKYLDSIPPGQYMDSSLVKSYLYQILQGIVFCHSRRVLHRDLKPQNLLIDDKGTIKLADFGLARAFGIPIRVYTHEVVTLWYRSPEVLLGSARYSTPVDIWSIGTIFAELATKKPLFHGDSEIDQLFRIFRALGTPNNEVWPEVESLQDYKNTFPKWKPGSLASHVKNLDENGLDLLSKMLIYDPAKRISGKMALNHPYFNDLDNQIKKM
T1 sequence (P14635 whole entry partner, the tested form may be a part): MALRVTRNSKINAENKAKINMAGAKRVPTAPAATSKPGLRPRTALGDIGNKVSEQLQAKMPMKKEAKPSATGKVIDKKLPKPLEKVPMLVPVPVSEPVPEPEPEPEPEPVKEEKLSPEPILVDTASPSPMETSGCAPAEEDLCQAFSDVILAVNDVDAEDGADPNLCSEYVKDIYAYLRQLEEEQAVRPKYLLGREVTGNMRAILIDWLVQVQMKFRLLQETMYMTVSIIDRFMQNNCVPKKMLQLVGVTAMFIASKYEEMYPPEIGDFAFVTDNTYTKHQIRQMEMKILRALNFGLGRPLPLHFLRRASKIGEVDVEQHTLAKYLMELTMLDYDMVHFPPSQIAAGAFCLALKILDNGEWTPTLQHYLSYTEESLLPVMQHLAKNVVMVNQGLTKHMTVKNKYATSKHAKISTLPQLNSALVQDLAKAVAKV
Method: Inhibitory effects of compounds were measured in NanoBRET TE Intracellular Kinase Assay. 293T (ATCC; CRL-3216) or 293 (ATCC; CRL-1573) cell lines were maintained in 90% DMEM and 10% fetal bovine serum at 37° C., 5% CO2, and 95% relative humidity. Cells were trypsinized and resuspended in assay media (99% Opti-MEM I Reduced Serum Medium, no phenol red, and 1% fetal bovine serum). Cells were co-transfected with 1 μg/mL of CDK-NanoLuc Fusion Vector (Promega; NV2701 for CDK1, NV2781 for CDK2, NV2811 for CDK4, NV2841 for CDK6) and 1 μg/mL of the corresponding Cyclin Expression Vector (Promega; NV2601 for CCNB1, NV2641 for CCNE1, NV2621 for CCND1, NV2631 for CCND3) using FuGENE HD Transfection Reagent (Promega; E2311). 40 uL/well of cells with transfection mixture were seeded in 384-well plates at 1.25×10^5 to 2×10^5 cells/mL and incubated for 24 hours at 37° C., 5% CO2, and 95% relative humidity. On the next day, 100 nL of 100 μM NanoBRET Tracer K-10 (Promega; N2640) and 40 nL of 1000× test compounds prepared in DMSO were added to the cells in each well of 384-well plates for a 2-hour incubation at 37° C., 5% CO2, and 95% relative humidity. 20 uL/well of 3× Intracellular TE Nano-Glo Substrate/Inhibitor (Promega; N2162) were added to 384-well plates and incubated for 3 minutes at room temperature. NanoBRET signals (donor emission wavelength at 450 nm, acceptor emission wavelength at 610 nm) were measured using Envision plate reader (PerkinElmer). NanoBRET ratio was calculated by: BRET Ratio=raw signal for acceptor/raw signal for donor. Dose response curve normalized to DMSO control was plotted using four-parameter logistic model for IC50 calculation.

[2] = target: T2, CDK2-NanoLuc fusion with CCNE1 in 293T or 293 cells (Homo sapiens, UniProt P24941); assay: NanoBRET Target Engagement (TE) Intracellular Kinase Assay, CDK2/CCNE1; conditions: 2-hour incubation
T2 construct: host or cells: 293T (ATCC CRL-3216) or 293 (ATCC CRL-1573)

[3] = target: T3, CDK4-NanoLuc fusion with CCND1 in 293T or 293 cells (Homo sapiens, UniProt P11802); assay: NanoBRET Target Engagement (TE) Intracellular Kinase Assay, CDK4/CCND1; conditions: 2-hour incubation
T3 construct: host or cells: 293T (ATCC CRL-3216) or 293 (ATCC CRL-1573)
T3 sequence (P11802 whole entry, the tested form may be a part): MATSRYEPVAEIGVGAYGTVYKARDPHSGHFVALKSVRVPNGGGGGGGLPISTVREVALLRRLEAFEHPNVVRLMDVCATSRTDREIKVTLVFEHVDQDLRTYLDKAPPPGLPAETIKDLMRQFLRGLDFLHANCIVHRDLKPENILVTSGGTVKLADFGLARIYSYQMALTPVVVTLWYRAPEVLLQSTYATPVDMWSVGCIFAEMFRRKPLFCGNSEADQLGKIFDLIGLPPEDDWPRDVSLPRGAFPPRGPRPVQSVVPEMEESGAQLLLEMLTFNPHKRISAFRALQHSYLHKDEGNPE
T3 sequence (P24385 whole entry partner, the tested form may be a part): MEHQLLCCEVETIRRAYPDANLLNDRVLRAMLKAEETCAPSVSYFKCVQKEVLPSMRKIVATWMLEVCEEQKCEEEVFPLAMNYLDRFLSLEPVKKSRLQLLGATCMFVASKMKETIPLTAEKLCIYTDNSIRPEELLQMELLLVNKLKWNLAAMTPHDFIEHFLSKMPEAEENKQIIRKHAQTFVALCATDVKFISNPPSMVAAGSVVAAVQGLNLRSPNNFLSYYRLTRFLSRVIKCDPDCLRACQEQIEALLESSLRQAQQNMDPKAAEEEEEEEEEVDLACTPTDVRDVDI

[4] = system: Phospho-Rb Ser807/811 in OVCAR3 cells; assay: OVCAR3 Phospho-Rb Ser807/811 HTRF assay; conditions: Homo sapiens, OVCAR3 cells, Phospho-Rb Ser807/811 HTRF, 1 hour incubation, read-out: pRb-OVCAR3 IC50
Method: Cells were trypsinized and resuspended in 1 mM hydroxyurea (Sigma; H8627), 90% RPMI and 10% fetal bovine serum. […] Dose response curve normalized to DMSO control was plotted using four-parameter logistic model for IC50 calculation.

[5] = NanoBRET TE intracellular kinase assay, read-out: NanoBRET-CDK1/B1 IC50
[6] = NanoBRET TE intracellular kinase assay, read-out: NanoBRET-CDK2/E1 IC50
[7] = NanoBRET TE intracellular kinase assay, read-out: NanoBRET-CDK4/D1 IC50

Row | Compound | pIC50 [1, 5] | pIC50 [2, 6] | pIC50 [3, 7] | pIC50 ([4]; OVCAR-3, 1 h) | pIC50 ([4]; OVCAR-3) | pIC50 ([1]; NanoBRET-CDK1/B1 IC50, NanoBRET TE intracellular kinase assay) | pIC50 ([2]; NanoBRET-CDK2/E1 IC50, NanoBRET TE intracellular kinase assay) | pIC50 ([3]; NanoBRET-CDK4/D1 IC50, NanoBRET TE intracellular kinase assay)
1 | CC(C)NC(=O)O[C@H]1C[C@@H](c2cc(NC(=O)COc3cccc(O)c3C=O)n[nH]2)C1 [Compound 114, (1s,3s)-3-(3-(2-(2-formyl-3-hydroxyphenoxy)acetamido)-1H-pyrazol-5-yl)cyclobutyl isopropylcarbamate] | 7.57 | 8.35 | < 5.00 | 6.92 |  |  |  | 
2 | CC(C)NC(=O)O[C@@H]1CC[C@H](c2cc(NC(=O)CCc3ccc(O)c(C=O)c3)n[nH]2)C1 [Compound 6, (1R,3S)-3-{5-[3-(3-formyl-4-hydroxyphenyl)propan-amido]-2H-pyrazol-3-yl}cyclopentyl N-isopropylcarbamate; trifluoroacetic acid] | 6.95 | 7.90 | 6.40 |  | 6.21 |  |  | 
3 | O=Cc1c(O)cccc1OCC(=O)Nc1cc([C@H]2CC[C@@H](OC(=O)N3CCCC3)C2)[nH]n1 [Compound 85, (1R,3S)-3-{5-[2-(2-formyl-3-hydroxyphenoxy)acetamido]-2H-pyrazol-3-yl}cyclopentyl pyrrolidine-1-carboxylate] | 7.63 | 8.59 | < 5.00 | 6.75 |  |  |  | 
4 | COC[C@H](C)NC(=O)O[C@@H]1CC[C@H](c2cc(NC(=O)COc3cc(OC)cc(O)c3C=O)n[nH]2)C1 [Compound 200] | 8.05 | 8.29 | 5.08 | 7.56 |  |  |  | 
5 | COc1cc(O)c(C=O)c(OCC(=O)Nc2cc([C@H]3CC[C@@H](OC(=O)N4C5CCC4COC5)C3)[nH]n2)c1 [Compound 207, (1R,3S)-3-{5-[2-(2-formyl-3-hydroxy-5-methoxyphenoxy)acetamido]-2H-pyrazol-3-yl}cyclopentyl 3-oxa-8-azabicyclo[3.2.1]octane-8-carboxylate] |  |  |  |  | 7.59 | 8.18 | 8.65 | 5.38
6 | COc1cc(O)c(C=O)c(OCC(=O)Nc2cc([C@H]3C[C@@H](OC(=O)N4CCCC4)C3)[nH]n2)c1 [Compound 112, (1s,3s)-3-(3-(2-(2-formyl-3-hydroxy-5-methoxyphenoxy)acetamido)-1H-pyrazol-5-yl)cyclobutyl pyrrolidine-1-carboxylate] | 7.44 | 8.33 | < 5.00 | 6.83 |  |  |  | 
7 | COc1cc(O)c(C=O)c(OCC(=O)Nc2cc([C@H]3CC[C@@H](OC(=O)N4CC[C@@H](F)C4)C3)[nH]n2)c1 [Compound 240] | 8.13 | 8.81 | 5.55 | 7.66 |  |  |  | 
8 | COc1cc(O)c(C=O)c(OCC(=O)Nc2cc([C@H]3CC[C@@H](OC(=O)N4CCCC45CC5)C3)[nH]n2)c1 [Compound 232] | 8.32 | 8.66 | 5.64 | 7.40 |  |  |  | 
9 | COc1cc(O)c(C=O)c(OCC(=O)Nc2cc([C@H]3CC[C@@H](OC(=O)N4CCC(F)(F)C4)C3)[nH]n2)c1 [Compound 246] | 8.02 | 8.56 | 5.21 | 7.48 |  |  |  | 
10 | CC(C)NC(=O)O[C@@H]1CC[C@H](c2cc(NC(=O)c3cc(OCc4cccc(O)c4C=O)nn3C)n[nH]2)C1 [Compound 28, (1R,3S)-3-(3-(3-((2-formyl-3-hydroxybenzyl)oxy)-1-methyl-1H-pyrazole-5-carboxamido)-1H-pyrazol-5-yl)cyclopentyl isopropylcarbamate] | 6.82 | 7.98 | 5.92 | 5.74 |  |  |  | 
11 | CC(C)NC(=O)O[C@@H]1CC[C@H](c2cc(Nc3cc(C#Cc4cccc(O)c4C=O)ccn3)n[nH]2)C1 [Compound 75, (1R,3S)-3-[5-({4-[2-(2-formyl-3-hydroxyphenyl)ethynyl]pyridin-2-yl}amino)-2H-pyrazol-3-yl]cyclopentyl N-isopropylcarbamate; trifluoroacetic acid] | 6.43 | 7.67 | 6.65 | 5.30 |  |  |  | 
